Data set [1] addresses T1, RIM1 C2B (RIM1α C2B domain) (Rattus norvegicus, UniProt Q9JIR4).
T1 sequence (Q9JIR4 1447-1615): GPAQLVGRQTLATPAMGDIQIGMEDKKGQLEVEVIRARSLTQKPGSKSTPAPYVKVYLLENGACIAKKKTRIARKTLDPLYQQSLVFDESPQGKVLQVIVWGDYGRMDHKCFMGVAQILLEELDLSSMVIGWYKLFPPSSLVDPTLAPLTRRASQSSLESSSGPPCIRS
Briefly: 1H-15N HSQC NMR titration. The data set is classed as binding.

The data set “AUC” concerns the molecule itself. Briefly: AUC.

In general, Kd refers to the free concentration of one partner at which half of the binding sites on the other are occupied at equilibrium, for simple one-to-one binding. In data set [1], `CCCC(=O)OC[C@H](COP(=O)(O)O[C@@H]1[C@H](O)[C@H](O)[C@@H](OP(=O)(O)O)[C@H](OP(=O)(O)O)[C@H]1O)OC(=O)CCC` [diC4-PIP2] displayed a Kd of 32 to 79 µM.

B1: RIM1α C2B domain (GST tag cleaved) (domain or fragment, rat)
chain: T1 sequence (Q9JIR4 1447-1615)
For the molecule B1, in the data set “AUC”, the Kd was around 3000 µM.

Source of the values: PMC5910229 (Neuron, 2018).
